{"source": "patent US20260262643A1", "about": "“HERBICIDAL BENZOXAZINES” (FMC CORPORATION, priority 2022, published 2026)", "key": {"kochia [1]": {"system": "kochia", "test": "Test C postemergence", "format": "in vivo, Bassia scoparia", "conditions": "10 days, 0 to 100 scale (0 no effect, 100 complete control)", "how_it_was_run": "(§1)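 Seeds in loam–sand blend received preemergence directed soil spray of test chemicals in non-phytotoxic solvent with surfactant; postemergence treatment was applied at one- to two-leaf stage (2–10 cm). After 10 days in greenhouse, injury rated visually versus untreated controls, 0 (no effect) to 100 (complete control).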"}, "ryegrass, Italian [2]": {"system": "ryegrass, Italian", "test": "Test C preemergence", "format": "in vivo, Lolium multiflorum", "how_it_was_run": "as §1"}, "ragweed [3]": {"system": "ragweed", "test": "Test C postemergence", "format": "in vivo, Ambrosia artemisiifolia", "conditions": "10 days, 0 to 100 scale (0 no effect, 100 complete control)", "how_it_was_run": "as §1"}, "barnyardgrass [4]": {"system": "barnyardgrass", "test": "Test C preemergence", "format": "in vivo, Echinochloa crusgalli", "how_it_was_run": "as §1"}, "oat, wild [5]": {"system": "oat, wild", "test": "Test C preemergence", "format": "in vivo, Avena fatua", "how_it_was_run": "as §1"}, "ducksalad": {"system": "ducksalad", "test": "Test D flooded paddy test", "format": "in vivo, Heteranthera limosa", "conditions": "250 g ai/ha, applied to paddy water, visual rating after 13 to 14 days, scale 0 to 100 (0 no effect, 100 complete control)", "how_it_was_run": "(§2)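 Compounds go straight into paddy water over 2-leaf plants in pots flooded to 3 cm. Greenhouse holding lasts 13 to 14 days. Injury is scored by eye against controls from 0 (none) to 100 (complete control).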"}, "pigweed, palmer [6]": {"system": "pigweed, palmer", "test": "Test C postemergence", "format": "in vivo, Amaranthus palmeri", "conditions": "10 days, 0 to 100 scale (0 no effect, 100 complete control)", "how_it_was_run": "as §1"}, "kochia [7]": {"system": "kochia", "test": "Test C preemergence", "format": "in vivo, Bassia scoparia", "how_it_was_run": "as §1"}, "blackgrass [8]": {"system": "blackgrass", "test": "Test C postemergence", "format": "in vivo, Alopecurus myosuroides", "conditions": "Alopecurus myosuroides, post-emergence, 240 h, 10 days, 0 to 100 scale (0 no effect, 100 complete control), read-out: Plant response rating, Blackgrass", "how_it_was_run": "as §1"}, "ragweed [9]": {"system": "ragweed", "test": "Test C preemergence", "format": "in vivo, Ambrosia artemisiifolia", "how_it_was_run": "as §1"}, "pigweed, palmer [10]": {"system": "pigweed, palmer", "test": "Test C preemergence", "format": "in vivo, Amaranthus palmeri", "how_it_was_run": "as §1"}, "horseweed": {"system": "horseweed", "test": "Test C postemergence", "format": "in vivo, Erigeron canadensis", "conditions": "10 days, 0 to 100 scale (0 no effect, 100 complete control)", "how_it_was_run": "as §1"}, "green foxtail [11]": {"system": "green foxtail", "test": "Test C preemergence", "format": "in vivo, Setaria viridis", "how_it_was_run": "as §1"}, "galium": {"system": "galium", "test": "Test C postemergence", "format": "in vivo, Galium aparine", "conditions": "10 days, 0 to 100 scale (0 no effect, 100 complete control)", "how_it_was_run": "as §1"}, "ryegrass, Italian [12]": {"system": "ryegrass, Italian", "test": "Test C postemergence", "format": "in vivo, Lolium multiflorum", "conditions": "10 days, 0 to 100 scale (0 no effect, 100 complete control)", "how_it_was_run": "as §1"}, "rice": {"system": "rice", "test": "Test D flooded paddy test", "format": "in vivo, Oryza sativa", "conditions": "250 g ai/ha, applied to paddy water, visual rating after 13 to 14 days, scale 0 to 100 (0 no effect, 100 complete control)", "how_it_was_run": "as §2"}, "wheat [13]": {"system": "wheat", "test": "Test C preemergence", "format": "in vivo, Triticum aestivum", "how_it_was_run": "as §1"}, "oat, wild [14]": {"system": "oat, wild", "test": "Test C postemergence", "format": "in vivo, Avena fatua", "conditions": "10 days, 0 to 100 scale (0 no effect, 100 complete control)", "how_it_was_run": "as §1"}, "barnyardgrass [15]": {"system": "barnyardgrass", "test": "Test C postemergence", "format": "in vivo, Echinochloa crusgalli", "conditions": "10 days, 0 to 100 scale (0 no effect, 100 complete control)", "how_it_was_run": "as §1"}, "wheat [16]": {"system": "wheat", "test": "Test C postemergence", "format": "in vivo, Triticum aestivum", "conditions": "10 days, 0 to 100 scale (0 no effect, 100 complete control)", "how_it_was_run": "as §1"}, "soybean [17]": {"system": "soybean", "test": "Test C preemergence", "format": "in vivo, Glycine max", "how_it_was_run": "as §1"}, "blackgrass [18]": {"system": "blackgrass", "test": "Test C preemergence", "format": "in vivo, Alopecurus myosuroides", "how_it_was_run": "as §1"}, "corn [19]": {"system": "corn", "test": "Test C postemergence", "format": "in vivo, Zea mays", "conditions": "Zea mays, post-emergence, 240 h, 10 days, 0 to 100 scale (0 no effect, 100 complete control)", "how_it_was_run": "as §1"}, "green foxtail [20]": {"system": "green foxtail", "test": "Test C postemergence", "format": "in vivo, Setaria viridis", "conditions": "10 days, 0 to 100 scale (0 no effect, 100 complete control)", "how_it_was_run": "as §1"}, "corn [21]": {"system": "corn", "test": "Test C preemergence", "format": "in vivo, Zea mays", "how_it_was_run": "as §1"}, "barnyardgrass [22]": {"system": "barnyardgrass", "test": "Test D flooded paddy test", "format": "in vivo, Echinochloa crus-galli", "conditions": "250 g ai/ha, applied to paddy water, visual rating after 13 to 14 days, scale 0 to 100 (0 no effect, 100 complete control)", "how_it_was_run": "as §2"}, "sedge, umbrella": {"system": "sedge, umbrella", "test": "Test D flooded paddy test", "format": "in vivo, Cyperus difformis", "conditions": "250 g ai/ha, applied to paddy water, visual rating after 13 to 14 days, scale 0 to 100 (0 no effect, 100 complete control)", "how_it_was_run": "as §2"}, "soybean [23]": {"system": "soybean", "test": "Test C postemergence", "format": "in vivo, Glycine max", "conditions": "10 days, 0 to 100 scale (0 no effect, 100 complete control)", "how_it_was_run": "as §1"}, "[24]": {"conditions": "500 g ai/ha, preemergence, 0 to 100 scale (0 no effect, 100 complete control)"}, "[25]": {"conditions": "Preemergence, 125 g ai/ha, 0 to 100 scale, 0 no effect, 100 complete control"}}, "data": [{"smiles": "CCOC[C@H]1CN(C(=O)c2cc(-n3cnc(C(C)C)n3)ccc2C)c2cccc(Cl)c2O1", "note": "[Compound 340, [(2R)-8-chloro-2-(ethoxymethyl)-2,3-dihydro-1,4-benzoxazin-4-yl]-[5-(3-isopropyl-1,2,4-triazol-1-yl)-2-methyl-phenyl]methanone]", "values": [{"measurement": "Plant response rating, Kochia", "setting": "kochia [1]; 500 g ai/ha, postemergence", "result": 90}, {"measurement": "Plant response rating, Kochia", "setting": "kochia [1]; Postemergence, 125 g ai/ha", "result": 90}, {"measurement": "Ryegrass, Italian plant response rating", "setting": "ryegrass, Italian [2]; [24]", "result": 100}, {"measurement": "Plant response rating, Ryegrass, Italian", "setting": "ryegrass, Italian [2]; [25]", "result": 90}, {"measurement": "Plant response rating, Ragweed", "setting": "ragweed [3]; 500 g ai/ha, postemergence", "result": 80}, {"measurement": "Plant response rating, Ragweed", "setting": "ragweed [3]; Postemergence, 125 g ai/ha", "result": 70}, {"measurement": "Barnyardgrass plant response rating", "setting": "barnyardgrass [4]; [24]", "result": 100}, {"measurement": "Plant response rating, Barnyardgrass", "setting": "barnyardgrass [4]; [25]", "result": 90}, {"measurement": "Oat, Wild plant response rating", "setting": "oat, wild [5]; [24]", "result": 80}, {"measurement": "Plant response rating, Oat, Wild", "setting": "oat, wild [5]; [25]", "result": 70}, {"measurement": "Plant response rating, Ducksalad (Flood)", "setting": "ducksalad", "result": 75}, {"measurement": "Plant response rating, Pigweed, Palmer", "setting": "pigweed, palmer [6]; 500 g ai/ha, postemergence", "result": 100}, {"measurement": "Plant response rating, Pigweed, Palmer", "setting": "pigweed, palmer [6]; Postemergence, 125 g ai/ha", "result": 80}, {"measurement": "Kochia plant response rating", "setting": "kochia [7]; [24]", "result": 100}, {"measurement": "Plant response rating, Kochia", "setting": "kochia [7]; [25]", "result": 90}, {"measurement": "pest or weed control at 500 g/ha", "setting": "blackgrass [8]; 500 g ai/ha, postemergence", "result": 60, "unit": "%"}, {"measurement": "pest or weed control at 125 g/ha", "setting": "blackgrass [8]; Postemergence, 125 g ai/ha", "result": 20, "unit": "%"}, {"measurement": "Ragweed plant response rating", "setting": "ragweed [9]; [24]", "result": 100}, {"measurement": "Plant response rating, Ragweed", "setting": "ragweed [9]; [25]", "result": 80}, {"measurement": "Pigweed, Palmer plant response rating", "setting": "pigweed, palmer [10]; [24]", "result": 100}, {"measurement": "Plant response rating, Pigweed, Palmer", "setting": "pigweed, palmer [10]; [25]", "result": 100}, {"measurement": "Plant response rating, Horseweed", "setting": "horseweed; 500 g ai/ha, postemergence", "result": 60}, {"measurement": "Plant response rating, Horseweed", "setting": "horseweed; Postemergence, 125 g ai/ha", "result": 30}, {"measurement": "Foxtail, Green plant response rating", "setting": "green foxtail [11]; [24]", "result": 100}, {"measurement": "Plant response rating, Foxtail, Green", "setting": "green foxtail [11]; [25]", "result": 100}, {"measurement": "Plant response rating, Galium", "setting": "galium; 500 g ai/ha, postemergence", "result": 100}, {"measurement": "Plant response rating, Galium", "setting": "galium; Postemergence, 125 g ai/ha", "result": 90}, {"measurement": "Plant response rating, Ryegrass, Italian", "setting": "ryegrass, Italian [12]; 500 g ai/ha, postemergence", "result": 80}, {"measurement": "Plant response rating, Ryegrass, Italian", "setting": "ryegrass, Italian [12]; Postemergence, 125 g ai/ha", "result": 60}, {"measurement": "Plant response rating, Rice (Flood)", "setting": "rice", "result": 0}, {"measurement": "Wheat plant response rating", "setting": "wheat [13]; [24]", "result": 80}, {"measurement": "Plant response rating, Wheat", "setting": "wheat [13]; [25]", "result": 50}, {"measurement": "Plant response rating, Oat, Wild", "setting": "oat, wild [14]; 500 g ai/ha, postemergence", "result": 20}, {"measurement": "Plant response rating, Oat, Wild", "setting": "oat, wild [14]; Postemergence, 125 g ai/ha", "result": 10}, {"measurement": "Plant response rating, Barnyardgrass", "setting": "barnyardgrass [15]; 500 g ai/ha, postemergence", "result": 60}, {"measurement": "Plant response rating, Barnyardgrass", "setting": "barnyardgrass [15]; Postemergence, 125 g ai/ha", "result": 50}, {"measurement": "Plant response rating, Wheat", "setting": "wheat [16]; 500 g ai/ha, postemergence", "result": 30}, {"measurement": "Plant response rating, Wheat", "setting": "wheat [16]; Postemergence, 125 g ai/ha", "result": 10}, {"measurement": "Soybean plant response rating", "setting": "soybean [17]; [24]", "result": 100}, {"measurement": "Plant response rating, Soybean", "setting": "soybean [17]; [25]", "result": 30}, {"measurement": "Blackgrass plant response rating", "setting": "blackgrass [18]; [24]", "result": 90}, {"measurement": "Plant response rating, Blackgrass", "setting": "blackgrass [18]; [25]", "result": 50}, {"measurement": "Corn plant response rating (crop injury, 0 = no effect, 100 = complete kill) at 500 g/ha", "setting": "corn [19]; 500 g ai/ha, postemergence", "result": 60, "unit": "%"}, {"measurement": "Corn plant response rating (crop injury, 0 = no effect, 100 = complete kill) at 125 g/ha", "setting": "corn [19]; Postemergence, 125 g ai/ha", "result": 60, "unit": "%"}, {"measurement": "Plant response rating, Foxtail, Green", "setting": "green foxtail [20]; 500 g ai/ha, postemergence", "result": 70}, {"measurement": "Plant response rating, Foxtail, Green", "setting": "green foxtail [20]; Postemergence, 125 g ai/ha", "result": 30}, {"measurement": "Corn plant response rating", "setting": "corn [21]; [24]", "result": 40}, {"measurement": "Plant response rating, Corn", "setting": "corn [21]; [25]", "result": 20}, {"measurement": "Plant response rating, Barnyardgrass (Flood)", "setting": "barnyardgrass [22]", "result": 0}, {"measurement": "Plant response rating, Sedge, Umbrella (Flood)", "setting": "sedge, umbrella", "result": 60}, {"measurement": "Plant response rating, Soybean", "setting": "soybean [23]; 500 g ai/ha, postemergence", "result": 100}, {"measurement": "Plant response rating, Soybean", "setting": "soybean [23]; Postemergence, 125 g ai/ha", "result": 100}]}]}
